Source: US20070292489A1, “METHOD FOR TREATMENT OF WOUND TREATMENT USING AGANOCIDES” (priority 2006, published 2007)

Test system: human secondary intention wound
Assay: Vacuum-assisted wound treatment combined with intermittent aganocide instillation
Type: in vivo
Conditions: pH about 4, 0.9% NaCl, 2-hour pumping at 125 mm Hg
Method: A human secondary intention wound approximately 3-4 cm in diameter is fitted with a polyurethane sponge, pore size 400-600 microns cut to the size of the wound and twice the thickness of the wound and covered with an adhesive film, per instructions on the vacuum system. The outlet is connected to an IV bag (500 ml) with a 0.1% sodium 2-dichloroamino-2-methylpropanesulfonate solution adjusted with HCl to a pH of about 4, 0.9% NaCl and elevated to between 0.1 and 1 meter above the wound. A 1-cm hole is punctured in the adhesive film, and a second adhesive film is used to cover the hole, with the second outlet connected to the vacuum pump.
Each cycle consists of three phases: a 2-hour pumping phase when the vacuum (125 mm Hg negative pressure) is connected and the IV bag is disconnected; a 1 second instilling phase when the vacuum is disconnected and the IV bag is connected and the aganoocide is applied to the wound; and a 1 minute holding phase when both vacuum and the IV bag are disconnected.
Each treatment has about 24 cycles and starts with a pumping phase and proceeds for 48 hours. When the treatment is completed, the dressings are changed and the treatment is repeated until full granulation has been promoted and the granulation tissue is within the level of the skin, approximately 30 to 100 days, depending on the depth of the original wound. […]

CC(C)(CS(=O)(=O)[O-])N(Cl)Cl.[Na+] [Sodium 2-dichloroamino-2-methylpropanesulfonate]
wound healing results of the combination treatment regimen compared with vacuum-assisted wound healing without aganocide or aganocide alone (Example 1: 0.1% solution, 1 second instilling, 1 minute holding, about 24 cycles per 48 hours): superior wound healing results | wound healing results of the combination treatment regimen compared with vacuum-assisted wound healing without aganocide or aganocide alone (Example 2: 0.1% solution, 5 second instilling, 30 minute holding, about 19 cycles per 48 hours): superior wound healing results
